The values below come from patent US20020051799A1, “Glucosylated hydroxystilbene compounds for treating skin conditions” (priority 2000, published 2002).

The conditions of test [1]: glucosylated form compared with the non glucosylated form; cited from earlier work.
The test system of a further test is tyrosinase. Put plainly: Spectrophotometric tyrosinase assay (255 nm). The class given is biochemical. How it is done:
A glucosylated resveratrol (4′,5-dihydroxystilbene-3-O-beta-D-glucoside) (APIN Chemicals N17555p, 29 D Milton Park, Abingdon, Oxon, United Kingdom) was incubated in the presence of an extract of stratum corneum or of a homogenate of hair follicles that had been removed by plucking. Under precise experimental conditions, the affinity of the resveratrol for tyrosinase was higher than for glucosylated resveratrol. This property was advantageously employed to measure the resveratrol liberated in the presence of tyrinosase, determined at 255 nm. This method was adapted from the method described by A. A. Calderon: “A Spectrophotometric Assay for Quantitative Analysis of the Oxidation of 4-hydroxystilbene by Peroxidase-H2O2 Systems: J. of Biochem. and Biophys. (1990) Methods 20: 171-180.
A 200 μl aliquot was removed and 10 μl of tyronisase was added.
Two independent measurements were carried out by determining the optical density at 255 nm over 10 minutes and calculating the slope of the graph (60 to 300 seconds).
Under the same conditions, a calibration curve was produced using resveratrol (1; 2.5; 5; 7.5 and 10 μl) in a volume adjusted to […].

As for `OC[C@H]1O[C@@H](Oc2cc(O)cc(/C=C/c3ccc(O)cc3)c2)[C@H](O)[C@@H](O)[C@@H]1O` [glucosylated resveratrol, 4′,5-dihydroxystilbene-3-O-beta-D-glucoside], in test [1], the antioxidant activity entry is on record as “far inferior”. `Oc1ccc(C=Cc2cc(O)cc(O)c2)cc1` [resveratrol, 3,4′,5-trihydroxystilbene]: the affinity for tyrosinase result in the test with tyrosinase (compared with glucosylated resveratrol, under precise experimental conditions) is “higher”. In the test with tyrosinase (in vitro tests), the “concentrations at which resveratrol action was demonstrated” value is “less than 10 μm”.
